Measured values taken from patent US20100273835A1, “NOVEL COMPOUNDS” (PROBIODRUG AG, priority 2007, published 2010).

Columns and labels:
[1] = tested on: beta-amyloid peptides 1-40 and 1-42, U-343 and SH-SY5Y cells; test: Beta-amyloid ELISA, secreted beta-amyloid peptides in conditioned medium; type: cell-based; conditions: Homo sapiens; inhibitor 20 μM, 24 hours; untreated = 100%; FIG. 2: Abeta 1-42, SH-SY5Y cells; read-out: Extracellular Abeta-concentration % of control
Experimental: (§1) The human glioma cell line, U-343 and the human neuroblastoma cell line, SH-SY5Y were maintained in Dulbecco's modified Eagle's medium (DMEM) containing 10% fetal bovine serum (Gibco BRL, Karlsruhe, Germany) and incubated at 37° C. in a 5% CO2 atmosphere. Culture media contained in general 60 μg/ml gentamycin (Gibco BRL, Karlsruhe, Germany).
To quantify intracellular and extracellular concentrations of beta-amyloid peptides, 1-40 and 1-42, U-343 and SH-SY5Y cells were cultured in 6 well plates (1.5×10^6 cells/well) and treated with specific PEP inhibitors (20 μM each) for 24 hours. For quantitation of secreted beta-amyloid peptides the conditioned medium was collected and concentrated by lyophylisation. Likewise, after determination of the cell numbers/well (casy cell counter I, Schärfe System, Reutlingen, Germany), cells were lyzed with cell extraction buffer (Biosource, Solingen, Germany) according to the manufacturer's protocol. The protein concentration was determined by the method of Bradford (1976). Aliquots of 100 μl were used to quantify beta-amyloid peptides 1-40 and 1-42 in quadruplicate by ELISA (IBL, Hamburg, Germany) following the manufacturer's instructions. All obtained intracellular and extracellular concentrations were normalized to cell numbers and protein concentration, respectively.
For the calculation of the concentration of beta-amyloid peptides 1-40 and 1-42 in the cell culture medium after PEP-inhibitor treatment, the basal concentration of beta-amyloid peptides 1-40 and 1-42 in the cell culture medium of untreated cell samples was set to 100%. The results of the measurement of the concentration of beta-amyloid peptides 1-40 and 1-42 with PEP-inhibitor treated cells are presented as % of the untreated cell samples.

[2] = tested on: basal secretion of IL-6, human glial U-343 cells; test: IL-6 ELISA, basal secretion of IL-6 into conditioned medium; type: cell-based; conditions: inhibitor 20 μM, 24 hours, serum-free medium, untreated = 100%, read-out: Extracellular IL-6 concentration, % of untreated cells
Experimental: To analyze basal secretion of IL-6, human glial U-343 cells were cultured in 6 well plates (1.5×10^6 cells/well, Greiner) and treated with specific PEP inhibitors as indicated (20 μM each) for 24 hours in serum-free D-MEM medium (Invitrogen). Aliquots of 40 μl conditioned medium were used to quantify the amount of secreted IL-6 by an human-specific IL-6 ELISA (Biosource) following the manufacturer's instructions. All data were obtained in quadruplicate. For the calculation of the IL-6 concentration in the cell culture medium after PEP-inhibitor treatment, the basal IL-6 concentration of the cell culture medium of untreated cell samples was set to 100%. The results of the measurement of the IL-6 concentration with PEP-inhibitor treated cells are presented as % of the untreated cell samples.
as §1

[3] = molecular target: T1, Recombinant human prolyl oligopeptidase (Homo sapiens, UniProt P48147); test: Determination of IC50- and Ki-values of PEP-inhibitors, chromogenic substrate Cbz-Gly-L-Pro-pNA; type: biochemical; conditions: for Ki: 4 substrate and 7 inhibitor concentrations, competitive inhibition, pH 7.6, 30° C.; for IC50 / IC50 PEP (M): substrate 0.15 mM, HEPES buffer pH 7.6, 30° C., n.i. means no inhibition
T1 construct: made in house; host or cells: E. coli
T1 sequence (P48147 1-710): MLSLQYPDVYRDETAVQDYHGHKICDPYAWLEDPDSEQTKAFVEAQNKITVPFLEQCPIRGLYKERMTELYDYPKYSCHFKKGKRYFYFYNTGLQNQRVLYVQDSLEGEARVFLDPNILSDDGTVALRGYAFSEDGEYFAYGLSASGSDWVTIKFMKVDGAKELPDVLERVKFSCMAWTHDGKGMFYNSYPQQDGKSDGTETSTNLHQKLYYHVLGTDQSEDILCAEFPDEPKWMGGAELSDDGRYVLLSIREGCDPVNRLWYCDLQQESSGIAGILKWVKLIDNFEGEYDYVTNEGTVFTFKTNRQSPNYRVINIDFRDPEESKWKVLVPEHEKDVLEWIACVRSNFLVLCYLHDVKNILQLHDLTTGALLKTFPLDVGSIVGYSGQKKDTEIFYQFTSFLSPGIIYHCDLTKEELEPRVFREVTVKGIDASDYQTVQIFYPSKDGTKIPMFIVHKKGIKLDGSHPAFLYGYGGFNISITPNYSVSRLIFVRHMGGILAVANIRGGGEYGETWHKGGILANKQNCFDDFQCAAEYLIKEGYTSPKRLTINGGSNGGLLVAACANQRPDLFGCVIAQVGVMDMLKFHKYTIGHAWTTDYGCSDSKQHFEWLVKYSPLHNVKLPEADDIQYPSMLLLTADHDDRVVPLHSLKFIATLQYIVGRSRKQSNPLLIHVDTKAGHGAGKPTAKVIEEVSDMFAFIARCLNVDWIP
Experimental: Recombinant human prolyl oligopeptidase was used for measurement. Recombinant expression was performed in E. coli under standard conditions as described elsewhere in the state of the art.
For activity measurements the chromogenic substrate Cbz-Gly-L-Pro-pNA was used in HEPES buffer pH 7.6 containing 50 mM HEPES, 200 mM NaCl, 1 mM EDTA, 1 mM DTT, 0.006% Brij35. Measurements were carried out at 30° C. Release of pNA were monitored continuously at 405 nm.
IC50 values were calculated using non-linear regression to a 4-parameter equation (Prism 4.0, GraphPad).
For Ki determination 4 substrate (0.15 mM, 0.08 mM 0.04 mM, 0.02 mM) and 7 inhibitor concentrations in an appropriate range were used. Calculations were performed by multiple non-linear regression analysis to the equation for competitive inhibition using GraFit 5.0 Software (Erithacus Software).

Compound	Ki [3] [µM]	IC50 [3] [µM]	IC50 PEP (M) [3]	activity at 20 µM [1] [%]	activity at 20 µM [2] [%]
O=C(c1nc2ccccc2s1)[C@@H]1CCCN1C(=O)OCc1ccccc1 [Example 1, 2-[Cbz-L-Pro]Benzothiazole]	0.98	7	–	155	40
O=C(N[C@@H](Cc1ccccc1)C(=O)c1cccs1)OCc1ccccc1 [Example 3, 2-[Cbz-L-Phe]Thiophene]	–	1	–	339	23
O=C(N[C@@H](Cc1ccccc1)C(=O)c1ccccn1)OCc1ccccc1 [Example 7, 2-[Cbz-L-Phe]Pyridine]	–	39	–	236	31
O=C(N[C@@H](Cc1ccccc1)C(=O)c1ccccc1)OCc1ccccc1 [Example 9, Cbz-L-Phe-Benzene]	1.6	5.2	–	330	18
C[C@H](NC(=O)OCc1ccccc1)C(=O)c1nccs1 [Example 10, 2-[Cbz-L-Ala]Thiazole]	2.3	7.1	–	107	78
C=CCOC(=O)N[C@@H](Cc1ccccc1)C(=O)c1nccs1 [Example 14, 2-[Aloc-L-Phe]Thiazole]	–	–	–	115	67
C=CCOC(=O)N[C@@H](Cc1ccccc1)C(=O)c1ccco1 [Example 15, 2-[Aloc-L-Phe]Furan]	–	10	–	116	78
O=C(/C=C/c1ccccc1)N[C@@H](Cc1ccccc1)C(=O)c1nccs1 [Example 19, 2-[Cinnamoyl-L-Phe]Thiazole]	–	–	n.i.	230	58
CC(C)C[C@H](NC(=O)OC(C)(C)C)C(=O)c1nc2ccccc2s1 [Example 20, 2-[Boc-L-Leu]Benzothiazole]	–	–	–	375	63
CC(C)(C)OC(=O)N1CCC[C@H]1C(=O)c1nc2ccccc2s1 [Example 24, 2-[Boc-L-Pro]Benzothiazole]	–	–	–	136	26
CC(C)(C)OC(=O)N1CCC[C@H]1C(=O)c1nccs1 [Example 25, 2-[Boc-L-Pro]Thiazole]	2.3	7.3	–	111	59

Second part, led by results:

Ki [3] [µM]	IC50 [3] [µM]	IC50 PEP (M) [3]	Compound	activity at 20 µM [1] [%]	activity at 20 µM [2] [%]
–	> 100	–	O=C(N[C@@H](Cc1ccccc1)C(=O)c1nc2ccccc2s1)OCc1ccccc1 [Example 2, 2-[Cbz-L-Phe]Benzothiazole]	295	44
–	–	n.i.	O=C(N[C@H](Cc1ccccc1)C(=O)c1nccs1)OCc1ccccc1 [Example 4, 2-[Cbz-D-Phe]Thiazole]	172	44
0.00115	0.0012	–	O=C(N[C@@H](Cc1ccccc1)C(=O)c1nccs1)OCc1ccccc1 [Example 5, 2-[Cbz-L-Phe]Thiazole]	193	29
–	4.5	–	C[C@H](NC(=O)OCc1ccccc1)C(=O)c1nc2ccccc2s1 [Example 6, 2-[Cbz-L-Ala]Benzothiazole]	114	36
–	–	n.i.	O=C(N[C@@H](Cc1ccccc1)C(=O)c1cc2ccccc2s1)OCc1ccccc1 [Example 8, 2-[Cbz-L-Phe]Benzo[b]thiophene]	310	27
–	25	–	CC(C)(C)OC(=O)N[C@@H](Cc1ccc([N+](=O)[O-])cc1)C(=O)c1nccs1 [Example 11, 2-[Boc-L-(p-NO2)Phe]Thiazole]	178	62
–	14	–	CC(C)(C)OC(=O)N[C@@H](Cc1ccc([N+](=O)[O-])cc1)C(=O)c1ccco1 [Example 12, 2-[Boc-L-(p-NO2)Phe]Furan]	166	37
–	–	n.i.	C=CCOC(=O)N[C@@H](Cc1ccccc1)C(=O)c1nc2ccccc2s1 [Example 13, 2-[Aloc-L-Phe]Benzothiazole]	106	69
–	40	–	CC(C)(C)OC(=O)N[C@@H](Cc1c[nH]c2ccccc12)C(=O)c1nc2ccccc2s1 [Example 16, 2-[Boc-L-Trp]Benzothiazole]	177	23
–	94	–	CC(C)(C)OC(=O)N[C@@H](Cc1c[nH]c2ccccc12)C(=O)c1nccs1 [Example 17, 2-[Boc-L-Trp]Thiazole]	143	38
–	14	–	CC(C)(C)OC(=O)N[C@@H](Cc1c[nH]c2ccccc12)C(=O)c1ccco1 [Example 18, 2-[Boc-L-Trp]Furan]	163	24
–	–	n.i.	CC(C)(C)OC(=O)N[C@@H](Cc1ccc([N+](=O)[O-])cc1)C(=O)c1nc2ccccc2s1 [Example 21, 2-[Boc-L-(p-NO2)Phe]Benzothiazole]	311	96
–	–	n.i.	CC(C)(C)OC(=O)N[C@@H](Cc1ccc(I)cc1)C(=O)c1ccco1 [Example 22, 2-[Boc-L-(p-Iodo)Phe]Furan]	232	50
–	–	n.i.	CC(C)(C)OC(=O)N[C@@H](Cc1ccc(I)cc1)C(=O)c1nccs1 [Example 23, 2-[Boc-L-(p-Iodo)Phe]Thiazole]	210	41
52	77	–	CC(C)(C)OC(=O)N[C@@H](Cc1ccccc1)C(=O)c1nccs1 [Example 26, 2-[Boc-L-Phe]Thiazole]	168	66
